The source of these data is US11667879B2, “Dynamic incubator system and method” (FOREVER LABS, INC., priority 2019, dated 2023).

Structures are written as SMILES.

This experiment concerns rat 9 L gliosarcoma cells. The experiment is described as follows: cell proliferation experiment, 9 L gliosarcoma cells. Type of experiment: cell-based. The settings on record: 10 uM Fisetin for 24 hours, then 48 hours without; 72 hours, dynamic incubation vs constant. The protocol:
Referring now to FIG. 11, another graph illustrating the results of another cell proliferation experiment is depicted. In this experiment, rat 9 L gliosarcoma cells after 72 hours of culture in controlled temperature and gas concentration (constant 37° C. and 5% CO2) are compared with dynamic incubation using the dynamic incubator system 10 (cycling 37° C. and 5% CO2 for 8 hrs., then 38° C. and 5.5% CO2 for 30 min.). The experiment included 10 uM Fisetin. In addition, 100,000 9 L cells were plated in a T75 flask, containing 10 mL of α-MEM medium, with 10 uM Fisetin. In addition, the medium was refreshed after 24 hours without Fisetin, and the cells were then cultured for a 48 additional hours. […] P-values are from t-test compared to control.

As to `O=c1c(O)c(-c2ccc(O)c(O)c2)oc2cc(O)ccc12` [Fisetin], the “9 L cell numbers” value is reported as “decreases cell numbers”.
